Like-named read-outs stand apart in the source and are kept apart here.
Assays:
PKMYT1 = PKMYT1 (Homo sapiens, UniProt Q99640); settings: 1 µM; binder
EPHA1 = EPHA1 (Homo sapiens, UniProt P21709); settings: 1 µM; binder
AKT2 = AKT2 (Homo sapiens, UniProt P31751); settings: 1 µM; binder
BRSK1 = BRSK1 (Homo sapiens, UniProt Q8TDC3); settings: 1 µM; binder
WEE2 = WEE2 (Homo sapiens, UniProt P0C1S8); settings: 1 µM; binder
CSNK1G1 = CSNK1G1 (Homo sapiens, UniProt Q9HCP0); settings: 1 µM; binder
TBK1 = TBK1 (Homo sapiens, UniProt Q9UHD2); settings: 1 µM; binder
CAMK2B = CAMK2B (Homo sapiens, UniProt Q13554); settings: 1 µM; binder
ARK5 = ARK5 (Homo sapiens, UniProt O60285); settings: 1 µM; binder
DRAK2 = DRAK2 (Homo sapiens, UniProt O94768); settings: 1 µM; binder
FLT3(R834Q) = FLT3(R834Q) (Homo sapiens, UniProt P36888, R834Q); settings: 1 µM; binder
NEK6 = NEK6 (Homo sapiens, UniProt Q9HC98); settings: 1 µM; binder
RIPK2 = RIPK2 (Homo sapiens, UniProt O43353); settings: 1 µM; binder
FLT4 = FLT4 (Homo sapiens, UniProt P35916); settings: 1 µM; binder
ERBB4 = ERBB4 (Homo sapiens, UniProt Q15303); settings: 1 µM; binder
PIK3CA(E542K) = PIK3CA(E542K) (Homo sapiens, UniProt P42336, E542K); settings: 1 µM; binder
ABL1-nonphosphorylated = ABL1-nonphosphorylated (Homo sapiens, UniProt P00519); settings: 1 µM; binder
HIPK4 = HIPK4 (Homo sapiens, UniProt Q8NE63); settings: 1 µM; binder
KIT(V559D,T670I) = KIT(V559D,T670I) (Homo sapiens, UniProt P10721, T670I/V559D); settings: 1 µM; binder
AAK1 = AAK1 (Homo sapiens, UniProt Q2M2I8); settings: 1 µM; binder
RPS6KA3 = RPS6KA3 (Homo sapiens, UniProt P51812); settings: binder
GRK4 = GRK4 (Homo sapiens, UniProt P32298); settings: 1 µM; binder
EPHA6 = EPHA6 (Homo sapiens, UniProt Q9UF33); settings: 1 µM; binder
DSTYK = DSTYK (Homo sapiens, UniProt Q6XUX3); settings: 1 µM; binder
NEK11 = NEK11 (Homo sapiens, UniProt Q8NG66); settings: 1 µM; binder
ICK = ICK (Homo sapiens, UniProt Q9UPZ9); settings: 1 µM; binder
PIK3CG = PIK3CG (Homo sapiens, UniProt P48736); settings: 1 µM; binder
TNK2 = TNK2 (Homo sapiens, UniProt Q07912); settings: 1 µM; binder
EPHB4 = EPHB4 (Homo sapiens, UniProt P54760); settings: 1 µM; binder
MAP3K14 = MAP3K14 (Homo sapiens, UniProt Q99558); settings: 1 µM; binder

Measured: Percent Control

RPS6KA3, sequence (P51812 whole entry): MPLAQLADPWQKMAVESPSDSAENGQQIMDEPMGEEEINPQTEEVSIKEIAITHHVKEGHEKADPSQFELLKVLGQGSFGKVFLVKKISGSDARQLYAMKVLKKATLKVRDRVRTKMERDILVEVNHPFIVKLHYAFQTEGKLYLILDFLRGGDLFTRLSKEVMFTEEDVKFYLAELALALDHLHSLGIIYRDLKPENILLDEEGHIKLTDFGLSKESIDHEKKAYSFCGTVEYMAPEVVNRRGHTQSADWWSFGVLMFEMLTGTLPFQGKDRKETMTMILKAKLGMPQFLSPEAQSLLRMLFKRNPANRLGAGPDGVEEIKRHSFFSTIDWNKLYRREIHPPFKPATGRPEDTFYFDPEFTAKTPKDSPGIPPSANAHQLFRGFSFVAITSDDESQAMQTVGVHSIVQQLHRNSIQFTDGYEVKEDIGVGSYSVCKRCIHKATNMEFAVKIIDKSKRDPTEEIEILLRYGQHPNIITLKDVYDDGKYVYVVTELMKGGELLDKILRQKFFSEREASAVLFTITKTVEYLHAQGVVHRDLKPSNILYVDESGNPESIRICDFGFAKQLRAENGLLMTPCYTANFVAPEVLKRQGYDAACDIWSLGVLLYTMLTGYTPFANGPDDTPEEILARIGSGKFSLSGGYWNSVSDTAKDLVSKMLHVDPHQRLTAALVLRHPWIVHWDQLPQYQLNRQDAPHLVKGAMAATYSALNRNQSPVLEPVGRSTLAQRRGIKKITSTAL
TNK2, sequence (Q07912 whole entry): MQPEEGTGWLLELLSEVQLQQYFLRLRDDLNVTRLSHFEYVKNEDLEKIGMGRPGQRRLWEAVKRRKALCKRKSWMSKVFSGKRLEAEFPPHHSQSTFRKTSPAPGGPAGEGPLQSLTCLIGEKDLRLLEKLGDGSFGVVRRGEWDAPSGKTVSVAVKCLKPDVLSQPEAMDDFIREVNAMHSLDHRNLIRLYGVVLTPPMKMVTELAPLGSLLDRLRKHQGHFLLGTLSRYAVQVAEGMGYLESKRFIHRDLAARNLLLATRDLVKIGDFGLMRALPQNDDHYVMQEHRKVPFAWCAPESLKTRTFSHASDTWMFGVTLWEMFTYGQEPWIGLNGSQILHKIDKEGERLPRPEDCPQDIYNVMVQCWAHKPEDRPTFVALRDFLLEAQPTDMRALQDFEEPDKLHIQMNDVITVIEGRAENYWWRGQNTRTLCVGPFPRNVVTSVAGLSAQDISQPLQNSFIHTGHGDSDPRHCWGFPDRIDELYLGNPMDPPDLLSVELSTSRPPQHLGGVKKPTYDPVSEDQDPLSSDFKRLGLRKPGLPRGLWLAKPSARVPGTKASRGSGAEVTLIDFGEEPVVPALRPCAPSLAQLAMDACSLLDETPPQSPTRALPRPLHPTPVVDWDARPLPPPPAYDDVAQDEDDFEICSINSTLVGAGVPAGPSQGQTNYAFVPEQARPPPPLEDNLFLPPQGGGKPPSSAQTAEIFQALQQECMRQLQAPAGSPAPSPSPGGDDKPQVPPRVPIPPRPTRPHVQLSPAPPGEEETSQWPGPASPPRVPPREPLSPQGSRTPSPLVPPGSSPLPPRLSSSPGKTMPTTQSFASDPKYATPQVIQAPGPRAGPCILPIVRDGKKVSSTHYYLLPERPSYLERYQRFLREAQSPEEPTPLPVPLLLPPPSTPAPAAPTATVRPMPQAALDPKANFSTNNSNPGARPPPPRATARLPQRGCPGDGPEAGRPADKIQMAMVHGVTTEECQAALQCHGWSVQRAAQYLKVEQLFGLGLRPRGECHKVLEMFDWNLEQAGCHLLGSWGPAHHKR
DSTYK, sequence (Q6XUX3 whole entry): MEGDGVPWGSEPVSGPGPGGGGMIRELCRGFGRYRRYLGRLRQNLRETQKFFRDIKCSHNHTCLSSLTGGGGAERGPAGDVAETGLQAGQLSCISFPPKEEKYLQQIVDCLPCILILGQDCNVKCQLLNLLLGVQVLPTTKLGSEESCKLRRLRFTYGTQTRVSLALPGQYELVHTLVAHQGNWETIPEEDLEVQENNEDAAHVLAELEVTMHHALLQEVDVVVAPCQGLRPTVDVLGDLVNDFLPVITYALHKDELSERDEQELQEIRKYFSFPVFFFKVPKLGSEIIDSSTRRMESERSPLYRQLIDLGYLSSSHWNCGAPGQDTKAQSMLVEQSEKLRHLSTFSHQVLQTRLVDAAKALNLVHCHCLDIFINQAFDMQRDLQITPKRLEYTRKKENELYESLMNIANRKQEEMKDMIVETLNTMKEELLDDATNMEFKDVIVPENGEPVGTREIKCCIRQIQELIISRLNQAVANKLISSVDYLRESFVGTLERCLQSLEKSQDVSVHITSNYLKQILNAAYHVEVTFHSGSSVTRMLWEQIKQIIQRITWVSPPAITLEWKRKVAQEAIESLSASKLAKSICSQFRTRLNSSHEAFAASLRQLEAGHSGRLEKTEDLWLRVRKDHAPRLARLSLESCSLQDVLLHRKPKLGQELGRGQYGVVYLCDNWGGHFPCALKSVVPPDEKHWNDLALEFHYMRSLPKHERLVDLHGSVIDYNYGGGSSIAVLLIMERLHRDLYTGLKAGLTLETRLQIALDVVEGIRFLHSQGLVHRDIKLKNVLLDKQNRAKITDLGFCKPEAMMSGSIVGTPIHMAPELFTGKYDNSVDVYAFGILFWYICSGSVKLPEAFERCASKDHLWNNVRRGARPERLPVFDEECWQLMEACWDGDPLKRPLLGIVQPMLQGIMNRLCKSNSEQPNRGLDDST
EPHB4, sequence (P54760 whole entry): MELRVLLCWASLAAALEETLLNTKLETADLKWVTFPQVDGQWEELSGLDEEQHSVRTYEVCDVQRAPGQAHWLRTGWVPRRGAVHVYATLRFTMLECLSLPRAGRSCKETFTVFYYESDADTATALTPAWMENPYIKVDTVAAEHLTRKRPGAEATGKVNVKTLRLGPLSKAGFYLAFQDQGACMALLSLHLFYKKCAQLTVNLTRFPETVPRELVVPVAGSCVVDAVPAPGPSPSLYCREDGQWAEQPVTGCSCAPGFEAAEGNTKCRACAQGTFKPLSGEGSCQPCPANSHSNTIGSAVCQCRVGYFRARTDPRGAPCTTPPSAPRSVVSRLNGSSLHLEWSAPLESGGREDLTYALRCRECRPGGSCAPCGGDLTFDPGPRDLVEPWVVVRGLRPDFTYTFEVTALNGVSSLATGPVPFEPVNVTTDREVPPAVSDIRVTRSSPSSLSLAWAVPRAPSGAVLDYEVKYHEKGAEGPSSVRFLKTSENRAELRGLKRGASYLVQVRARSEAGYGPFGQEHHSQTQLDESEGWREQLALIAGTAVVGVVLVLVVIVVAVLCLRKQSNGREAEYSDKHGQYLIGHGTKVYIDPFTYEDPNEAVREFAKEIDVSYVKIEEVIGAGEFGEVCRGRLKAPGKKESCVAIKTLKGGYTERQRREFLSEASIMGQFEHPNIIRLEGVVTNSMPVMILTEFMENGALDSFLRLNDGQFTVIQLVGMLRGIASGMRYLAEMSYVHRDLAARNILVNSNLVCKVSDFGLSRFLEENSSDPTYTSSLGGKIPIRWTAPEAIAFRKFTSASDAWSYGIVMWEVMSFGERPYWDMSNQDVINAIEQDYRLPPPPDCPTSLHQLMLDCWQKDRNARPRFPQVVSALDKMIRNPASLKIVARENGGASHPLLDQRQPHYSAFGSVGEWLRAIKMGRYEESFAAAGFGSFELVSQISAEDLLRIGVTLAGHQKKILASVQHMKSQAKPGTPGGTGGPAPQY
RIPK2, sequence (O43353 whole entry): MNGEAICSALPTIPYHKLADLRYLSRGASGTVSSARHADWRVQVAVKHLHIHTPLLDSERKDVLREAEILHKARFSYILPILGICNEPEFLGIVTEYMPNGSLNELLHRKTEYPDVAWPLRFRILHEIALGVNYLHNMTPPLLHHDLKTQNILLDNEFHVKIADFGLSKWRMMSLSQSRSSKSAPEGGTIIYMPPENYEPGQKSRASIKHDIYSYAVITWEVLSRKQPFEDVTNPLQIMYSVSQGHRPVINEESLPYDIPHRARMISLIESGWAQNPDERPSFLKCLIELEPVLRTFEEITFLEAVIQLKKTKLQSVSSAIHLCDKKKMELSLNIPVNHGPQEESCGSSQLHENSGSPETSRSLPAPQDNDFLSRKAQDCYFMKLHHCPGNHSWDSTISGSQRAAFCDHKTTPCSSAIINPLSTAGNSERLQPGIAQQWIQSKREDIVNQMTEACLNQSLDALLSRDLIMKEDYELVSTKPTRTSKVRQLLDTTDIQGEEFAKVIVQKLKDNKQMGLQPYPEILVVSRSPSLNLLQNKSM
DRAK2, sequence (O94768 whole entry): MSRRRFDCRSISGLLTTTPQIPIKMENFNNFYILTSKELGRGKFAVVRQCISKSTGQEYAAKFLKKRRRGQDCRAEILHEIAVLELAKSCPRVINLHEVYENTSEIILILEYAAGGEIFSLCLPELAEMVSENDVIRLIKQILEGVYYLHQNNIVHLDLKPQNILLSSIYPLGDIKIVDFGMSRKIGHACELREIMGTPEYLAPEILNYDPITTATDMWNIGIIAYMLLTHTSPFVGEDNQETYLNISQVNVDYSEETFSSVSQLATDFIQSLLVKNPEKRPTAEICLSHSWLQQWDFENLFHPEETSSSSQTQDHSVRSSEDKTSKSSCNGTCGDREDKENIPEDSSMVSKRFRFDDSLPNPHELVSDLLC
NEK6, sequence (Q9HC98 whole entry): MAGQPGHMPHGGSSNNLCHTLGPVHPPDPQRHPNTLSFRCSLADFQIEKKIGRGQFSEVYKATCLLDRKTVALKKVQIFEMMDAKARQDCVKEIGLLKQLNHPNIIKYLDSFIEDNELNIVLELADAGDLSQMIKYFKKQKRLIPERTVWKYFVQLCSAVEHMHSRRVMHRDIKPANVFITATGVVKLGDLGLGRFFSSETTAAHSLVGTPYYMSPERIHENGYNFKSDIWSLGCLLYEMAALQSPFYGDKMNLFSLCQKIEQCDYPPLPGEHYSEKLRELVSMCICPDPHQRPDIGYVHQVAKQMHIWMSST

CNc1ncc2cc(-c3ccc(-c4cccc(C)n4)cc3Cl)c(=O)n(C[C@H]3OC[C@H](N)CO3)c2n1 [compound 6, G-5555]
34%: EPHA1
100%: PKMYT1 | AKT2 | BRSK1 | WEE2 | CSNK1G1 | CAMK2B | DRAK2 | FLT3(R834Q) | NEK6 | FLT4 | ERBB4 | PIK3CA(E542K) | HIPK4 | KIT(V559D,T670I) | AAK1 | GRK4 | EPHA6 | NEK11 | ICK | EPHB4 | MAP3K14
65%: RIPK2 | RPS6KA3; Kin.Dom.1 N-terminal
85%: ABL1-nonphosphorylated
86%: TNK2
68%: TBK1
24%: ARK5
93%: PIK3CG
63%: RPS6KA3; Kin.Dom.2 C-terminal, 1 µM
91%: DSTYK

Reference: paper doi:10.1101/2021.04.08.439011v1 (biorxiv, 2021)
